{
  "source": "patent US20160193216A1",
  "about": "(Nimbus Iris, Inc., priority 2012, published 2016)",
  "key": {"GCB DLBCL Cells": {"test_system": "GCB DLBCL Cells", "assay": "sensitization of GCB DLBCL cells by BTK knockdown", "type": "cell-based", "settings": "BTK knockdown (FIG. 10)"}, "THP-1 cells": {"test_system": "THP-1 cells", "assay": "LPS induced cytokine (TNFα and IL8) production assay in THP-1 cells", "type": "cell-based", "settings": "Homo sapiens, 300 ng/mL LPS", "in_short": "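THP-1 cells (100,000/well) pre-incubated 1 hour with compound in 0.3% DMSO, then stimulated with 300 ng/mL LPS. TNFα and IL8 in supernatant measured by HTRF at 5 hours; IL8 and viability also at 16 hours.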"}, "Whole Blood": {"test_system": "Whole Blood", "assay": "In vitro LPS/R848-induced cytokine production assay in whole blood", "type": "cell-based, human", "settings": "Homo sapiens", "protocol": "(§1) In Vitro LPS/R848/CpG-Induced Cytokine Production Assays in hPBMC or Whole Blood\n(§2) Compounds of the present invention were also studied in in vitro LPS/R848/CpG-induced cytokine production assays. Exemplary protocols follow.\n(§3) […] Cells were seeded in a 96-well plate with 130 ul/well of the cell suspension according to the plate map. 9 ul of 30 mM compound solution was added into the wells in the assigned rows, then serial solutions with 4× dilutions were made. That is, add 9 uL of 100% DMSO into each of the rest wells and take 3 uL of compound solution from the one-step higher concentration solution and mix well with the DMSO. For the second compound master plate, 196 uL of the growth medium (no serum media) were added into each of the wells and 4 uL of the compound solution from the first compound master plate was added and mixed with the media. Cells were treated for 0.5 h by adding 20 uL of the compound and the control solutions prepared in the second master plate to each well according to the plate map. […] Plates were sealed with sealing films and the plates were centrifuged at 3000 rpm at 4 degrees C. for 5 min. The supernatants were transferred, and 100 ul of working Capture antibody solution was added to each well. The plates were sealed and incubated overnight at RT. IL-6, IFN-α or TNF-α detection antibody labeled with biotin: Added 100 uL of the Detection Antibody solution to each well. Covered the plate and incubated for 2 h at RT. Added 100 uL of Streptavidin-HRP solution to each well. Covered the plate and incubate for 20 min at RT in dark. Added 100 uL of Substrate Solution to each well. Incubated for 20 min at RT in dark. Added 50 uL of Stop Solution to each well. Gently tapped the plate to ensure thorough mixing. Determined the optical density of each well immediately, using a microplate reader set to 450 nm and also read at 540 nm or 570 nm for correction if wavelength correction is not available."}, "hPBMC": {"test_system": "hPBMC", "assay": "In vitro LPS/R848/CpG/IL-1β-induced cytokine production assay in hPBMC", "type": "cell-based", "settings": "Homo sapiens", "protocol": "as §1, §2, §3"}, "[1]": {"test_system": "collagen-induced arthritis", "assay": "In vivo murine collagen-induced arthritis model", "settings": "DBA mice, vs vehicle", "protocol": "In Vivo Murine Collagen-Induced Arthritis Model Compounds of the present invention were also evaluated in mice in an in vivo efficacy model for inhibiting IRAK4-mediated arthritis. An exemplary protocol for this assay follows. Male DBA mice were immunized with collagen on day 0 and day 21 and randomly enrolled into groups upon onset of disease. […] Eight mice were enrolled per group with the exception of the naïve control group, which contained four mice. Day 1 was designated as the first treatment day, and mice were evaluated daily for clinical scores until day 11. The mice were weighed on alternating days."}, "[2]": {"settings": "R848 1 uM, read-out: TNF-α production IC50"}},
  "note": "Like-named read-outs stand apart in the source and are kept apart here.",
  "data": [
    {"smiles": "NC(=O)C[C@H]1CCc2sc3ncnc(O[C@H]4CC[C@H](N5CCOCC5)CC4)c3c21", "note": "[Compound I-67, 2-((R)-4-(((1r,4R)-4-morpholinocyclohexyl)oxy)-6,7-dihydro-5H-cyclopenta[4,5]thieno[2,3-d]pyrimidin-5-yl)acetamide]", "values": [
      {"measurement": "sensitization of GCB DLBCL Cells to compound by BTK Knockdown", "setting": "GCB DLBCL Cells", "result": "lack of sensitization"},
      {"measurement": "IC50", "setting": "THP-1 cells; read-out: IL8 production IC50", "result": "≤ 500", "unit": "nM"},
      {"measurement": "IC50", "setting": "THP-1 cells; read-out: TNFα production IC50", "result": "500 to 1000", "unit": "nM"},
      {"measurement": "IC50", "setting": "Whole Blood; LPS 0.1 ug/mL, read-out: IL-6 production IC50", "result": "≤ 250", "unit": "nM"},
      {"measurement": "IC50", "setting": "Whole Blood; R848 1 uM, read-out: IFN-α production IC50", "result": "≥ 1000", "unit": "nM"},
      {"measurement": "IC50", "setting": "Whole Blood; [2]", "result": "500 to 1000", "unit": "nM"},
      {"measurement": "IC50", "setting": "hPBMC; CpG 0.1 uM, read-out: IFN-α production IC50", "result": "500 to 1000", "unit": "nM"},
      {"measurement": "IC50", "setting": "hPBMC; CpG 0.5 uM, read-out: TNF-α production IC50", "result": "250 to 500", "unit": "nM"},
      {"measurement": "IC50", "setting": "hPBMC; IL-1β 1 ng/mL, read-out: IL-6 production IC50", "result": "250 to 500", "unit": "nM"},
      {"measurement": "IC50", "setting": "hPBMC; LPS 0.01 ug/mL, read-out: IL-6 production IC50", "result": "≤ 250", "unit": "nM"},
      {"measurement": "IC50", "setting": "hPBMC; LPS 0.01 ug/mL, read-out: TNF-α production IC50", "result": "250 to 500", "unit": "nM"},
      {"measurement": "IC50", "setting": "hPBMC; [2]", "result": "500 to 1000", "unit": "nM"},
      {"measurement": "Clinical scores, collagen-induced arthritis", "setting": "[1]; intraperitoneally 30 mg/kg twice a day", "result": "efficacious compared to the vehicle"},
      {"measurement": "Clinical scores, collagen-induced arthritis", "setting": "[1]; orally 30 mg/kg twice a day", "result": "efficacious compared to the vehicle"}
    ]}
  ]
}
